Assays:
PAICS = PAICS (Homo sapiens, UniProt P22234)
oncogene myc = conditions: Western Blot, FIG. 4
[1] = system: lung cancer cell strain A549; test: cells; conditions: Homo sapiens, A549, 48 h
[2] = system: lung cancer cell strain H1299; test: cells; conditions: Homo sapiens, NCI-H1299, 48 h
[3] = system: breast cancer cell strain MD468; test: cells; conditions: 48 h
[4] = system: breast cancer cell strain MD231; test: cells; conditions: 48 h

Sequence of PAICS (P22234 whole entry): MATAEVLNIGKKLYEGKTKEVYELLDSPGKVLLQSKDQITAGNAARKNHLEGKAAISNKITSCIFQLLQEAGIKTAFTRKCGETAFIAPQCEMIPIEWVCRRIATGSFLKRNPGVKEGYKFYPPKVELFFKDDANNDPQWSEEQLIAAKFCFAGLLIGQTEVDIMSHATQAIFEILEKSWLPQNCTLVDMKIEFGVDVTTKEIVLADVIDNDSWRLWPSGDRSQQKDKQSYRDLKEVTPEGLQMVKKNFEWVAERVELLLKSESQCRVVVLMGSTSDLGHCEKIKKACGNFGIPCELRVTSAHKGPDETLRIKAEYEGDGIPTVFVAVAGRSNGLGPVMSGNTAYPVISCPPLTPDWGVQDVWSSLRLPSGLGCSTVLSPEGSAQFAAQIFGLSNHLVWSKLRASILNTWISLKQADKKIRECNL

inhibition of the accumulation of SAICAR (PAICS): up to 71.1%
IC50 [1]: 117 µM
IC50 [2]: 25.2 µM
IC50 [3]: 38 µM
IC50 [4]: 3.55 µM
SMILES: NCCCNCCCCNCCCN [spermine]
expression of oncogene myc (oncogene myc): significantly down-regulated

Source: patent publication US11684593B2 (GENEHEAL BIOTECHNOLOGY CO., LTD., priority 2017, dated 2023)
